Earlier results as cited in US7838544B2, “Heterocyclic inhibitors of 11-β hydroxyl steroid dehydrogenase type 1 and methods of using the same” (Incyte Corporation, priority 2006, dated 2010).

Target: T1, 11βHSD1 in the eye (Homo sapiens, UniProt P28845)
T1 construct: host or cells: eye of healthy volunteers, in vivo (11βHSD1 localized to non-pigmented epithelial cells)
Settings: healthy volunteers, after seven days of carbenoxolone treatment

T1 sequence (P28845 whole entry): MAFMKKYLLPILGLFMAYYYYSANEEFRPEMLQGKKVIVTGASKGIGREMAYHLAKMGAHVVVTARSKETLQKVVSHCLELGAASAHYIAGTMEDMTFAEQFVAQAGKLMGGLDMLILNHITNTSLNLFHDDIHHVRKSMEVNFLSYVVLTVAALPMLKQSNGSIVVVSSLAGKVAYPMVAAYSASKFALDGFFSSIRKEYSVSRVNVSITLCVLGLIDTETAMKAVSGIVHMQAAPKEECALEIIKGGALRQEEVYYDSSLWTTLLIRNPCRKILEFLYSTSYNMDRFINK

reduction of intra-ocular pressure (IOP): 18%
SMILES: CC1(C)[C@@H](OC(=O)CCC(=O)O)CC[C@]2(C)[C@H]3C(=O)C=C4[C@@H]5C[C@@](C)(C(=O)O)CC[C@]5(C)CC[C@@]4(C)[C@]3(C)CC[C@@H]12 [carbenoxolone]
